This passage reports IC50 results from ChEMBL document CHEMBL1857833, “Screening and optimization of specific chemical series against human African Trypanosomiasis (HAT)”.

≈ marks a conversion by molar mass, not a printed value.

The test system of series [1] is Trypanosoma brucei. Kind of series: DNDI: Inhibition of Human African Trypanosomiasis, SBRI 427, in vitro. The format is functional, organism-based. To be noted: Trypanosoma brucei, SBRI 427; read-out: IC50.
A short description of series [2]: DNDI: Cytotoxicity against L929 mouse fibroblasts, 72 hour. To be noted: mouse, L929 mouse fibroblasts. The format is toxicity, cell-based.

Consider `CCCCc1ccc(-c2nc(Nc3cccnc3)co2)cc1`, for which the IC50 in series [1] was over 5 µg/mL. The compound also displayed an IC50 at 72 h in series [2] of 6.24 µg/mL (≈ 21.3 µM).

For the compound `CCCCc1ccc(-c2nc(CN3C(=O)c4ccccc4C3=O)co2)cc1`, the IC50 in series [1] is over 5 µg/mL. In addition, the IC50 at 72 h in series [2] is over 10 µg/mL.

Turning to `CC(C)CC(NCc1ccc(Cl)c(Cl)c1)c1nc(-c2ccccc2)c(N2CCOCC2)o1` (centres undefined), the IC50 in series [1] is 4.46 µg/mL (≈ 9.4 µM). In addition, in series [2], the concentration for half-maximal inhibition (IC50) at 72 h is over 10 µg/mL.

Take `COc1cccc(-c2nc(CNCCC3CCCN3C)c(C)o2)c1` (centres undefined): the 50% inhibitory concentration (IC50) in series [1] amounted to 2.2 µg/mL (≈ 6.68 µM). In series [2], this compound had an IC50 at 72 h of over 10 µg/mL.

As for `CCCCc1ccc(-c2nc(CNC3CCN(Cc4ccccc4)CC3)co2)cc1`, in series [1], the IC50 came to 0.16 µg/mL (≈ 0.396 µM). For the same compound, 0.96 µg/mL (≈ 2.38 µM) corresponded to half-maximal inhibition in series [2] (IC50 at 72 h).

As to `Fc1ccc(-c2cc3nc(-c4ccccc4)cc(NCCN4CCCC4)n3n2)cc1`, the IC50 in series [1] is 1.68 µg/mL (≈ 4.18 µM). Also, the IC50 at 72 h in series [2] was found to be 4.94 µg/mL (≈ 12.3 µM).

`CCCCCC(C)NCc1nc(-c2ccc(C)cc2)oc1C` (centres undefined): the concentration for half-maximal inhibition (IC50) in series [1] stood at 1.41 µg/mL (≈ 4.69 µM). In addition, the half-maximal inhibitory concentration (IC50) at 72 h in series [2] is over 10 µg/mL.

As for `CCCCCC(C)NCc1nc(-c2ccc(OC)cc2)oc1C` (centres undefined), the half-maximal inhibitory concentration (IC50) in series [1] worked out at 1.49 µg/mL (≈ 4.71 µM). Further, the IC50 at 72 h in series [2] is over 10 µg/mL.

Consider `CCCCCC(C)NCc1coc(-c2ccc(OCc3ccc(Cl)c(Cl)c3)cc2)n1` (centres undefined), for which the IC50 in series [1] stood at 0.41 µg/mL (≈ 0.916 µM). The same compound returned an IC50 at 72 h in series [2] of 1.9 µg/mL (≈ 4.25 µM).

On to `CCOCCCNC(CC(C)C)c1nc(-c2ccccc2)c(N2CCOCC2)o1` (centres undefined), for which the IC50 in series [1] is over 5 µg/mL. In addition, the concentration for half-maximal inhibition (IC50) at 72 h in series [2] was over 10 µg/mL.

As for `Nc1oc(-c2ccccc2)nc1C(=O)c1ccc(-c2ccccc2)cc1`, in series [1], the 50% inhibitory concentration (IC50) was over 5 µg/mL. For the same compound, inhibition in series [2] was half-maximal at 5.23 µg/mL (≈ 15.4 µM) (IC50 at 72 h).

Regarding `CCCCc1ccc(-c2nc(CNCCCNC(=O)OC(C)(C)C)co2)cc1`, the IC50 in series [1] was 0.74 µg/mL (≈ 1.91 µM). In series [2], the IC50 at 72 h was determined as 1.47 µg/mL (≈ 3.79 µM).

With `CCCCCC(C)NCc1coc(-c2ccc(OCCCC)c(C)c2)n1` (centres undefined), the IC50 in series [1] was 0.42 µg/mL (≈ 1.17 µM). In addition, the IC50 at 72 h in series [2] stood at 1.37 µg/mL (≈ 3.82 µM).

Regarding `COc1ccc(-c2nc(CNCCCN(C)C)c(C)o2)cc1`, in series [1], the concentration for half-maximal inhibition (IC50) worked out at 3.13 µg/mL (≈ 10.3 µM). In series [2], this compound had a 50% inhibitory concentration (IC50) at 72 h of over 10 µg/mL.

As to `CCCCCC(C)NCc1coc(-c2ccc(Cl)cc2Cl)n1` (centres undefined), in series [1], the IC50 is 0.9 µg/mL (≈ 2.64 µM). Moreover, the IC50 at 72 h in series [2] was found to be 3.47 µg/mL (≈ 10.2 µM).

As to `CC(C)CC(NCc1ccc(C(F)(F)F)cc1)c1nc(-c2ccccc2)c(N2CCOCC2)o1` (centres undefined), in series [1], the IC50 came out at 2.58 µg/mL (≈ 5.45 µM). The IC50 at 72 h in series [2] was over 10 µg/mL.

Turning to `Cc1oc(-c2ccccc2F)nc1CNCCC1CCCN1C` (centres undefined), the IC50 in series [1] is over 5 µg/mL. Moreover, the concentration for half-maximal inhibition (IC50) at 72 h in series [2] is over 10 µg/mL.

In the case of `CCCCc1ccc(-c2nc(CNCCCn3ccnc3)co2)cc1`, the concentration for half-maximal inhibition (IC50) in series [1] was 0.3 µg/mL (≈ 0.886 µM). In series [2], this compound had a half-inhibitory concentration (IC50) at 72 h of 0.66 µg/mL (≈ 1.95 µM).

In the case of `CC(C)CC(NCCc1ccc(S(N)(=O)=O)cc1)c1nc(C(C)C)c(N2CCOCC2)o1` (centres undefined), in series [1], the concentration for half-maximal inhibition (IC50) is over 5 µg/mL. Also, the half-inhibitory concentration (IC50) at 72 h in series [2] is over 10 µg/mL.

Consider `COc1ccccc1C(=O)c1nc(-c2ccccc2)oc1N`, for which the IC50 in series [1] was over 5 µg/mL. The 50% inhibitory concentration (IC50) at 72 h in series [2] is over 10 µg/mL.

For `CCCCCC(C)NCc1nc(-c2cccc(OC)c2)oc1C` (centres undefined), in series [1], the concentration for half-maximal inhibition (IC50) was 1.54 µg/mL (≈ 4.87 µM). For the same compound, in series [2], the IC50 at 72 h is over 10 µg/mL.

As for `Cc1ccc(CNC(CC(C)C)c2nc(C(C)C)c(N3CCOCC3)o2)cc1` (centres undefined), the half-maximal inhibitory concentration (IC50) in series [1] was over 5 µg/mL. Further, the IC50 at 72 h in series [2] was over 10 µg/mL.

In the case of `CCCCCC(C)NCc1nc(-c2cccc(C)c2)oc1C` (centres undefined), the IC50 in series [1] amounted to 2.16 µg/mL (≈ 7.19 µM). Further, the IC50 at 72 h in series [2] was over 10 µg/mL.

Turning to `CCCCc1ccc(-c2nc(CN)co2)cc1`, the IC50 in series [1] is over 5 µg/mL. In series [2], this compound showed an IC50 at 72 h of over 10 µg/mL.

For the compound `CN(C)CC(C)(C)CNc1cc(-c2ccccc2)nc2cc(-c3cccc(F)c3)nn12`, in series [1], the IC50 is over 5 µg/mL. Moreover, the IC50 at 72 h in series [2] was over 10 µg/mL.

As to `CN(C)CCCNCc1coc(-c2ccc(OCCc3ccccc3)cc2)n1`, the IC50 in series [1] was over 5 µg/mL. In series [2], the 50% inhibitory concentration (IC50) at 72 h is over 10 µg/mL.

In the case of `CCCCCC(C)NCc1nc(-c2ccccc2F)oc1C` (centres undefined), in series [1], the IC50 amounted to 2.71 µg/mL (≈ 8.9 µM). It took 8.59 µg/mL (≈ 28.2 µM) to reach half-maximal inhibition in series [2] (IC50 at 72 h).

On to `CC(C)c1ccc(-c2nc(CNCCCN(C)C)co2)cc1`, for which the IC50 in series [1] was over 5 µg/mL. The compound further registered an IC50 at 72 h in series [2] of over 10 µg/mL.

`CCCCc1ccc(-c2nc(CNCCc3cnc[nH]3)co2)cc1`: in series [1], the IC50 is 0.37 µg/mL (≈ 1.14 µM). Inhibition in series [2] was half-maximal at 2.43 µg/mL (≈ 7.49 µM) (IC50 at 72 h).

For the compound `COc1ccc(-c2nc(CNCCC3CCCN3C)c(C)o2)cc1` (centres undefined), the IC50 in series [1] was 2.44 µg/mL (≈ 7.41 µM). Besides, the IC50 at 72 h in series [2] was over 10 µg/mL.

As to `CCCCCC(C)NCc1coc(-c2c(Cl)cccc2Cl)n1` (centres undefined), in series [1], the IC50 turned out to be 2.04 µg/mL (≈ 5.98 µM). The same compound yielded a 50% inhibitory concentration (IC50) at 72 h in series [2] of 5.76 µg/mL (≈ 16.9 µM).

Take `NCCCNc1cc(-c2ccccc2)nc2cc(-c3cccc(F)c3)nn12`: in series [1], the IC50 was found to be 0.535 µg/mL (≈ 1.48 µM). It took 1.57 µg/mL (≈ 4.34 µM) to reach half-maximal inhibition in series [2] (IC50 at 72 h).

Consider `Fc1ccc(-c2cc3nc(-c4ccccc4)cc(NCCN4CCCCC4)n3n2)cc1`, for which, in series [1], the half-inhibitory concentration (IC50) is over 5 µg/mL. The same compound yielded an IC50 at 72 h in series [2] of over 10 µg/mL.

In the case of `C/C(O)=C1\C(=O)NC(CC(C)C)C1=O` (centres undefined), in series [1], the half-inhibitory concentration (IC50) was over 5 µg/mL. Also, in series [2], the half-maximal inhibitory concentration (IC50) at 72 h was over 10 µg/mL.

Regarding `CCOCCCNC(c1nc(Cc2ccccc2)c(N2CCOCC2)o1)C1CC1` (centres undefined), the IC50 in series [1] is over 5 µg/mL. Moreover, in series [2], the IC50 at 72 h was over 10 µg/mL.

For the compound `C#[N+]C(C(=O)N1CCOCC1)c1ccccc1` (centres undefined), in series [1], the IC50 is over 5 µg/mL. This compound also came in with an IC50 at 72 h in series [2] of over 10 µg/mL.

`C#[N+]C(C(=O)N1CCOCC1)C(C)C` (centres undefined): the half-maximal inhibitory concentration (IC50) in series [1] is over 5 µg/mL. Further, the half-inhibitory concentration (IC50) at 72 h in series [2] is over 10 µg/mL.

As usually defined, the IC50 is the point on the concentration scale where inhibition reaches its midpoint.
